Data: ChEMBL document CHEMBL4421722, “Inhibitors of protein prenyltransferases” (2013)

Species on record: Rattus norvegicus
Assay: Inhibition of rat recombinant geranylgeranyltransferase type I expressed in Escherichia coli assessed as residual enzyme activity for geranylgeranylation of K-Ras4B at 50 uM incubated for 30 mins in presence of [3H]GGPP by scintillation counting assay relative to control

Work on `COc1ccc([C@@H]2CC=C(C(=O)O)[C@H](c3cccc(Br)c3)N2S(=O)(=O)c2ccccc2)cc1` yielded an Activity of 58.2%.

Work on `COc1ccc(S[C@@H]2C[C@@H](c3ccc(C)cc3)N(S(=O)(=O)c3ccc(Cl)cc3)C[C@H]2C(=O)O)cc1` yielded an Activity of 82.7%.

`COc1ccc([C@@H]2C[C@@H](SC3CCCC3)[C@H](C(=O)O)CN2S(=O)(=O)c2ccc(C)cc2)cc1` showed an Activity of 91.5%.

`Cc1ccc([C@@H]2CC=C(C(=O)O)[C@H](c3ccc(Cl)cc3)N2S(=O)(=O)c2ccc(C)cc2)cc1` was tested, and the Activity was 67.4%.

For `CCCCS[C@@H]1C[C@@H](c2ccc(C)cc2)N(S(=O)(=O)c2ccc(C)cc2)C[C@H]1C(=O)O`, the Activity was 82.6%.

For `Cc1ccc(S(=O)(=O)N2[C@@H](c3ccc(F)cc3)C(C(=O)O)=CC[C@H]2c2ccc(C(C)C)cc2)cc1`, the Activity was 50.9%.

`COc1cccc([C@@H]2CC=C(C(=O)O)[C@H](c3ccc(Cl)cc3)N2S(=O)(=O)c2ccc(C)cc2)c1` was tested, and the Activity was 54.1%.

With `Cc1ccc(S[C@@H]2C[C@@H](c3ccccc3)N(S(=O)(=O)c3ccc(C)cc3)C[C@H]2C(=O)O)cc1` the Activity was 98%.

`Cc1ccc(S(=O)(=O)N2[C@@H](c3cccc(Cl)c3)C(C(=O)O)=CC[C@H]2c2ccc(F)cc2)cc1` gave an Activity of 66.7%.

Work on `COc1ccc([C@@H]2C[C@@H](SCCC(C)C)[C@H](C(=O)O)CN2S(=O)(=O)c2ccc(C)cc2)cc1OC` yielded an Activity of 91.1%.

`Cc1ccc(S(=O)(=O)N2[C@@H](c3ccc(Cl)cc3)C(C(=O)O)=CC[C@H]2c2ccc(C(C)C)cc2)cc1` gave an Activity of 57.6%.

For `Cc1ccc(S(=O)(=O)N2[C@@H](c3cccc(F)c3)C(C(=O)O)=CC[C@H]2c2ccccc2)cc1`, the Activity was 63.7%.

`CC(=O)C1=CC[C@@H](c2ccc(C)cc2)N(S(C)(=O)=O)C1` was tested, and the Activity was 108%.

Work on `Cc1ccc(S(=O)(=O)N2C[C@@H](C(=O)O)[C@H](SC3CCCC3)C[C@H]2c2ccccc2)cc1` yielded an Activity of 93.6%.

`Cc1ccc(S(=O)(=O)N2[C@@H](c3cccc(F)c3)C(C(=O)O)=CC[C@H]2c2ccc(C(C)C)cc2)cc1` showed an Activity of 72.8%.

`CCCCS[C@@H]1C[C@@H](c2ccc(OC)cc2)N(S(=O)(=O)c2ccccc2C)C[C@H]1C(=O)O` gave an Activity of 88.8%.

For `CCc1ccc([C@@H]2CC=C(C(=O)O)[C@H](c3cccc(F)c3)N2S(=O)(=O)c2ccc(C)cc2)cc1`, the Activity was 55%.

Work on `COc1ccc([C@@H]2CC=C(C(=O)O)[C@H](c3cccc(Br)c3)N2S(=O)(=O)c2ccccc2C)cc1` yielded an Activity of 51.9%.

`Cc1ccc([C@@H]2C[C@@H](SC3CCCC3)[C@H](C(=O)O)CN2S(=O)(=O)c2ccccc2C)cc1` was tested, and the Activity was 93.5%.

For `CCCCCS[C@@H]1C[C@@H](c2ccc(OCC)cc2)N(S(=O)(=O)c2ccc(C)cc2)C[C@H]1C(=O)O`, the Activity was 89.1%.

In the case of `Cc1ccc([C@H]2C(C(=O)O)=CC[C@@H](c3ccccc3F)N2S(=O)(=O)c2ccc(C)cc2)cc1`, the Activity is reported as 92.9%.

For `C=CCS[C@@H]1C[C@@H](c2cccc(Cl)c2)N(S(=O)(=O)c2ccc(C)cc2)C[C@H]1C(=O)O`, the Activity was 46.3%.

`CCCCCCS[C@@H]1C[C@@H](c2ccc3c(c2)OCO3)N(S(=O)(=O)c2ccc(C)cc2)C[C@H]1C(=O)O` gave an Activity of 62.7%.

Compound `CCCCCCS[C@@H]1C[C@@H](c2cccc(Br)c2)N(S(=O)(=O)c2ccc(C)cc2)C[C@H]1C(=O)O` has an Activity of 68.9%.

For `COc1ccc(S[C@@H]2C[C@@H](c3cc(OC)c(OC)c(OC)c3)N(S(=O)(=O)c3ccc(C)cc3)C[C@H]2C(=O)O)cc1`, the Activity was 110%.

Work on `Cc1ccc([C@H]2C(C(=O)O)=CC[C@@H](c3ccc(C)cc3)N2S(=O)(=O)c2ccc(C)cc2)cc1` yielded an Activity of 73.6%.

For `CS(=O)(=O)N1[C@@H](c2cccc(Br)c2)C(C(=O)O)=CC[C@H]1c1ccccc1`, the Activity was 63.5%.

With `Cc1ccc(S(=O)(=O)N2[C@@H](c3cccc(Cl)c3)C(C(=O)O)=CC[C@H]2c2ccc(C(C)C)cc2)cc1` the Activity was 63.1%.

For `CC(=O)C1=CC[C@@H](c2cccc(Br)c2)N(S(=O)(=O)c2ccc(C)cc2)C1`, the Activity was 105%.

Compound `CS(=O)(=O)N1[C@@H](c2cccc(Cl)c2)C(C(=O)O)=CC[C@H]1c1ccc(Cl)cc1` has an Activity of 60.3%.

`Cc1ccc(S(=O)(=O)N2[C@@H](c3cccc(C)c3)C(C(=O)O)=CC[C@H]2c2ccc(F)cc2)cc1` gave an Activity of 78.1%.

`CCc1ccc([C@@H]2C[C@@H](SCc3ccc(Cl)cc3)[C@H](C(=O)O)CN2S(=O)(=O)c2ccc(C)cc2)cc1` showed an Activity of 43.7%.

`CCCCCS[C@@H]1C[C@@H](c2cc(OC)c(OC)c(OC)c2)N(S(=O)(=O)c2ccc(C)cc2)C[C@H]1C(=O)O` showed an Activity of 81.8%.

With `CCCCCS[C@@H]1C[C@@H](c2ccc3c(c2)OCO3)N(S(=O)(=O)c2ccc(C)cc2)C[C@H]1C(=O)O` the Activity was 66%.

Work on `Cc1ccc(S(=O)(=O)N2[C@@H](c3cccc(C)c3)C(C(=O)O)=CC[C@H]2c2cccc(Cl)c2)cc1` yielded an Activity of 46.9%.

For `COc1ccc([C@@H]2CC=C(C(=O)O)[C@H](c3ccc(F)cc3)N2S(=O)(=O)c2ccc(C)cc2)cc1`, the Activity was 72.9%.

Work on `COc1ccc([C@@H]2CC=C(C(=O)O)[C@H](c3cccc(C)c3)N2S(=O)(=O)c2ccccc2)cc1` yielded an Activity of 72.6%.

Compound `CCCCS[C@@H]1C[C@@H](c2ccc(Cl)cc2)N(S(=O)(=O)c2ccc(C)cc2)C[C@H]1C(=O)O` has an Activity of 81.5%.

`Cc1ccc([C@H]2C(C(=O)O)=CC[C@@H](c3cccc(F)c3)N2S(=O)(=O)c2ccc(C)cc2)cc1` showed an Activity of 81.3%.

`Cc1ccc(S[C@@H]2C[C@@H](c3ccc(Cl)cc3)N(S(=O)(=O)c3ccccc3C)C[C@H]2C(=O)O)cc1` showed an Activity of 74.8%.

In the case of `Cc1ccc(S(=O)(=O)N2[C@@H](c3cccc(C)c3)C(C(=O)O)=CC[C@H]2c2ccc3c(c2)OCO3)cc1`, the Activity is reported as 70.6%.

`Cc1ccc(S(=O)(=O)N2[C@@H](c3ccc(C(C)(C)C)cc3)C(C(=O)O)=CC[C@H]2c2ccc(F)cc2)cc1` showed an Activity of 85.1%.

`COC(=O)c1ccccc1S(=O)(=O)N1[C@@H](c2cccc(Br)c2)C(C(=O)O)=CC[C@H]1c1ccc(C)cc1` was tested, and the Activity was 64.9%.

`CCCCCS[C@@H]1C[C@@H](c2ccccc2)N(S(=O)(=O)c2ccc(C)cc2)C[C@H]1C(=O)O` showed an Activity of 77.2%.

Work on `Cc1ccc(S(=O)(=O)N2[C@@H](c3ccc(C(C)(C)C)cc3)C(C(=O)O)=CC[C@H]2c2cccc(Cl)c2)cc1` yielded an Activity of 78.8%.

`CCS[C@@H]1C[C@@H](c2ccccc2F)N(S(=O)(=O)c2ccc(C)cc2)C[C@H]1C(=O)O` gave an Activity of 89.4%.

In the case of `Cc1ccc([C@@H]2C[C@@H](SCCc3ccccc3)[C@H](C(=O)O)CN2S(C)(=O)=O)cc1`, the Activity is reported as 76.9%.

`CCS[C@@H]1C[C@@H](c2ccc(OC)cc2)N(S(=O)(=O)c2ccc(Cl)cc2)C[C@H]1C(=O)O` showed an Activity of 72.9%.

`COc1ccc([C@@H]2C[C@@H](SC3CCCC3)[C@H](C(=O)O)CN2S(=O)(=O)c2ccc(C)cc2)cc1OC` showed an Activity of 112%.

`Cc1ccc(S(=O)(=O)N2C[C@@H](C(=O)O)[C@H](SCC(C)C)C[C@H]2c2ccc(Cl)cc2)cc1` gave an Activity of 86.8%.

For `CCCCCCS[C@@H]1C[C@@H](c2cccc(Cl)c2)N(S(=O)(=O)c2ccc(C)cc2)C[C@H]1C(=O)O`, the Activity was 77.3%.

`COc1ccc([C@@H]2C[C@@H](Sc3ccc(C)cc3)[C@H](C(=O)O)CN2S(=O)(=O)c2ccccc2C)cc1` showed an Activity of 78.5%.

Work on `O=C(O)C1=CC[C@@H](c2ccc(Cl)cc2)N(S(=O)(=O)c2ccc(Cl)cc2)[C@H]1c1ccc(F)cc1` yielded an Activity of 43.5%.

Work on `CC(=O)C1=CC[C@@H](c2cccc3ccccc23)N(S(=O)(=O)c2ccc(C)cc2)C1` yielded an Activity of 95.6%.

Compound `COc1ccc([C@@H]2CC=C(C(=O)O)[C@H](c3cccc(Br)c3)N2S(=O)(=O)c2ccc(C)cc2)cc1OC` has an Activity of 59%.

`CCS[C@@H]1C[C@@H](c2ccc3c(c2)OCO3)N(S(=O)(=O)c2ccc(C)cc2)C[C@H]1C(=O)O` was tested, and the Activity was 91.5%.

`Cc1ccc([C@@H]2CC=C(C(=O)O)[C@H](c3cccc(Br)c3)N2S(=O)(=O)c2ccccc2)cc1` gave an Activity of 67.2%.

With `Cc1ccc(S(=O)(=O)N2[C@@H](c3cccc(Br)c3)C(C(=O)O)=CC[C@H]2c2ccccc2F)cc1` the Activity was 71.2%.

`Cc1ccc(S(=O)(=O)N2[C@@H](c3cccc(C)c3)C(C(=O)O)=CC[C@H]2c2cccs2)cc1` gave an Activity of 68.9%.

Compound `CC(C)(C)c1ccc([C@H]2C(C(=O)O)=CC[C@@H](c3ccc(Cl)cc3)N2S(C)(=O)=O)cc1` has an Activity of 60.4%.

For `CCCS[C@@H]1C[C@@H](c2ccc(OC)cc2)N(S(=O)(=O)c2ccc(C)cc2)C[C@H]1C(=O)O`, the Activity was 88.9%.

Compound `Cc1ccc([C@@H]2C[C@@H](SCc3ccc(Cl)cc3)[C@H](C(=O)O)CN2S(C)(=O)=O)cc1` has an Activity of 51.1%.

For `Cc1ccc(S(=O)(=O)N2[C@@H](c3ccc(C(C)(C)C)cc3)C(C(=O)O)=CC[C@H]2c2ccc(C(C)C)cc2)cc1`, the Activity was 88.3%.

For `CCc1ccc([C@@H]2C[C@@H](Sc3ccccc3)[C@H](C(=O)O)CN2S(=O)(=O)c2ccc(C)cc2)cc1`, the Activity was 45.7%.

For `CCCCCCS[C@@H]1C[C@@H](c2cccc(OC)c2)N(S(=O)(=O)c2ccc(C)cc2)C[C@H]1C(=O)O`, the Activity was 80.5%.

`CCCCS[C@@H]1C[C@@H](c2ccc(OC)cc2)N(S(=O)(=O)c2ccc(Cl)cc2)C[C@H]1C(=O)O` gave an Activity of 72.9%.

For `Cc1ccc([C@@H]2CC=C(C(=O)O)[C@H](c3ccc(Cl)cc3)N2S(=O)(=O)c2ccccc2)cc1`, the Activity was 79.9%.

Work on `COc1cc([C@@H]2C[C@@H](SCc3ccccc3)[C@H](C(=O)O)CN2S(=O)(=O)c2ccc(C)cc2)cc(OC)c1OC` yielded an Activity of 63.7%.

In the case of `COc1ccc([C@@H]2CC=C(C(=O)O)[C@H](c3ccc(C(C)(C)C)cc3)N2S(=O)(=O)c2ccc(C)cc2)cc1`, the Activity is reported as 91.1%.

In the case of `COc1ccc([C@@H]2CC=C(C(=O)O)[C@H](c3ccc(C(C)(C)C)cc3)N2S(=O)(=O)c2ccc(Cl)cc2)cc1`, the Activity is reported as 68.5%.

`C=CCS[C@@H]1C[C@@H](c2ccc(CC)cc2)N(S(=O)(=O)c2ccc(C)cc2)C[C@H]1C(=O)O` gave an Activity of 89.6%.

Work on `COc1cccc([C@@H]2C[C@@H](Sc3ccc(Cl)cc3)[C@H](C(=O)O)CN2S(=O)(=O)c2ccc(C)cc2)c1` yielded an Activity of 60.3%.

Compound `Cc1ccc(S(=O)(=O)N2[C@@H](c3cccc(C)c3)C(C(=O)O)=CC[C@H]2c2ccc(C(C)C)cc2)cc1` has an Activity of 57.1%.

`COc1ccc([C@@H]2C[C@@H](Sc3ccccc3)[C@H](C(=O)O)CN2S(=O)(=O)c2ccc(C)cc2)cc1` was tested, and the Activity was 79.6%.

For `Cc1ccccc1S(=O)(=O)N1[C@@H](c2ccc(C(C)(C)C)cc2)C(C(=O)O)=CC[C@H]1c1ccc(Cl)cc1`, the Activity was 97.3%.

`Cc1ccc(S[C@@H]2C[C@@H](c3ccccc3F)N(S(=O)(=O)c3ccc(C)cc3)C[C@H]2C(=O)O)cc1` showed an Activity of 80.4%.

For `CCOc1ccc([C@@H]2CC=C(C(=O)O)[C@H](c3ccc(C)cc3)N2S(=O)(=O)c2ccc(C)cc2)cc1`, the Activity was 63.2%.
